Results published in patent US4822786A, “Cephalosporin compounds, and antibacterial agents” (Kaken Pharmaceutical Co., Ltd., priority 1986, dated 1989).
Converted amounts (≈) assume the structure as drawn. Where two headings read alike, the source gives them in different places.

Experiments:
[1] = system: Klebsiella pneumoniae No. 42; assay: minimum inhibitory concentration, agar plate dilution method; format: cell-based
[2] = system: Pseudomonas aeruginosa Y-1; assay: infection-preventive effects in mice (intraperitoneal infection, survival); format: in vivo, JCL:JCR type male mice; details: Y1, ip, 168 h
[3] = system: Staphylococus aureus FDA 209-P JC-1; assay: minimum inhibitory concentration, agar plate dilution method; format: cell-based; details: Staphylococcus aureus, FDA209; S. aureus FDA 209-P JC-1; inoculated amount of cells 10^6 CFU/ml; Muller-Hinton agar; read-out: minimum inhibitory concentration (M.I.C.)
[4] = system: Enterobacter cloacae Nek 39; assay: as above; format: cell-based
Pseudomonas cepacia 23 = assay: as above; format: cell-based
[5] = system: Serratia marcescens No. 16-2; assay: as above; format: cell-based
[6] = system: Pseudomonas aeruginosa K-13; assay: infection-preventive effects in mice (intraperitoneal infection, survival); format: in vivo, JCL:JCR type male mice; details: K13, ip, 168 h
[7] = system: Acinetobacter calcoaceticus No. 4; assay: minimum inhibitory concentration, agar plate dilution method; format: cell-based
[8] = system: Staphyloccocus aureus Smith; assay: infection-preventive effects in mice (intraperitoneal infection, survival); format: in vivo, JCL:JCR type male mice; details: Staphylococcus aureus, ip, 168 h; S. aureus Smith, 7.7 × 10^7 cells/mouse i.p., no mucin; compound hypodermically 1 hour after infection; 7-day survival
Proteus vulgaris No. 33 = assay: minimum inhibitory concentration, agar plate dilution method; format: cell-based
Escherichia coli ML 4707 [9] = assay: infection-preventive effects in mice (intraperitoneal infection, survival); format: in vivo, JCL:JCR type male mice; details: ML4707, ip, 168 h, E. coli ML 4707, 1.1 × 10^6 cells/mouse i.p., no mucin, compound hypodermically 1 hour after infection, 7-day survival
Escherichia coli ML 4707 [10] = assay: minimum inhibitory concentration, agar plate dilution method; format: cell-based; details: ML4707, E. coli ML 4707, inoculated amount of cells 10^6 CFU/ml, Muller-Hinton agar, read-out: minimum inhibitory concentration (M.I.C.)
[11] = system: Pseudomonas aeruginosa Y-1; assay: as above; format: cell-based
[12] = system: Pseudomonas aeruginosa K-13; assay: as above; format: cell-based
[13] = K. pneumoniae No. 42, inoculated amount of cells 10^6 CFU/ml, Muller-Hinton agar, read-out: minimum inhibitory concentration (M.I.C.)
[14] = P. aeruginosa Y-1, 4.0 × 10^5 cells/mouse i.p., with mucin, compound hypodermically 1 hour after infection, 7-day survival, read-out: ED50
[15] = NEK39, E. cloacae Nek 39, inoculated amount of cells 10^6 CFU/ml, Muller-Hinton agar, read-out: minimum inhibitory concentration (M.I.C.)
[16] = Burkholderia cepacia, P. cepacia 23, inoculated amount of cells 10^6 CFU/ml, Muller-Hinton agar, read-out: minimum inhibitory concentration (M.I.C.)
[17] = NO.162, S. marcescens No. 16-2, inoculated amount of cells 10^6 CFU/ml, Muller-Hinton agar, read-out: minimum inhibitory concentration (M.I.C.)
[18] = P. aeruginosa K-13, 3.0 × 10^4 cells/mouse i.p., with mucin, compound hypodermically 1 hour after infection, 7-day survival, read-out: ED50
[19] = A. calcoaceticus No. 4, inoculated amount of cells 10^6 CFU/ml, Muller-Hinton agar, read-out: minimum inhibitory concentration (M.I.C.)
[20] = Y1, P. aeruginosa Y-1, inoculated amount of cells 10^6 CFU/ml, Muller-Hinton agar, read-out: minimum inhibitory concentration (M.I.C.)
[21] = K13, P. aeruginosa K-13, inoculated amount of cells 10^6 CFU/ml, Muller-Hinton agar, read-out: minimum inhibitory concentration (M.I.C.)
[22] = P. vulgaris No. 33, inoculated amount of cells 10^6 CFU/ml, Muller-Hinton agar, read-out: minimum inhibitory concentration (M.I.C.)

| MIC [3] [µg/mL] | MIC (Escherichia coli ML 4707 [10]) [µg/mL] | MIC [1, 13] [µg/mL] | MIC [4, 15] [µg/mL] | MIC (Pseudomonas cepacia 23; [16]) [µg/mL] | MIC [5, 17] [µg/mL] | MIC [7, 19] [µg/mL] | MIC [11, 20] [µg/mL] | MIC [12, 21] [µg/mL] | MIC (Proteus vulgaris No. 33; [22]) [µg/mL] | Structure (SMILES) | ED50 [8] [mg/kg] | ED50 (Escherichia coli ML 4707 [9]) [mg/kg] | ED50 [2, 14] [mg/kg] | ED50 [6, 18] [mg/kg] | further results |
| --- | --- | --- | --- | --- | --- | --- | --- | --- | --- | --- | --- | --- | --- | --- | --- |
| 3.13 (≈ 5.88 µM) | 50 (≈ 93.9 µM) | > 100 | > 100 | > 100 | > 100 | 50 (≈ 93.9 µM) | 1.56 (≈ 2.93 µM) | 3.13 (≈ 5.88 µM) | – | NC(=O)c1cc[n+](CC2=C(C(=O)O)N3C(=O)[C@@H](NC(=O)[C@@H](c4ccccc4)S(=O)(=O)[O-])[C@H]3SC2)cc1 [CFS, cefsulodin, reference compound] | – | > 100 | 13 | 39 | – |
| 3.13 (≈ 6.87 µM) | ≤ 0.025 | 0.1 (≈ 0.22 µM) | 3.13 (≈ 6.87 µM) | 3.13 (≈ 6.87 µM) | 6.25 (≈ 13.7 µM) | 25 (≈ 54.9 µM) | 12.5 (≈ 27.4 µM) | 25 (≈ 54.9 µM) | 0.05 (≈ 0.11 µM) | CO/N=C(\C(=O)N[C@@H]1C(=O)N2C(C(=O)O)=C(COC(C)=O)CS[C@H]12)c1csc(N)n1 [CTX, cefotaxime, reference compound] | 3.1 | 0.095 | > 200 | > 100 | – |
| 12.5 (≈ 17.1 µM) | 0.1 (≈ 0.137 µM) | 0.2 (≈ 0.274 µM) | 0.39 (≈ 0.534 µM) | 0.2 (≈ 0.274 µM) | 0.39 (≈ 0.534 µM) | 12.5 (≈ 17.1 µM) | 0.39 (≈ 0.534 µM) | 0.2 (≈ 0.274 µM) | 0.1 (≈ 0.137 µM) | Cc1cc(SCC2=C(C(=O)O)N3C(=O)[C@@H](NC(=O)/C(=N\OCc4cc(=O)c(O)cn4O)c4csc(N)n4)[C@H]3SC2)n2nc(C(=O)O)nc2n1 [Example 4, (6R, 7R)-7-[(Z)-2-(2-aminothiazol-4-yl)-2-(1,5-dihydroxy-4-pyridon-2-ylmethoxyimino)acetamido]-3(2-carboxy-5-methyl-s-triazolo[1,5-a]pyrimidin-7-ylthiomethyl)-3-cephem-4-carboxylic acid] | 8.7 | 0.16 | 4 | 12 | – |
| 50 (≈ 78.5 µM) | ≤ 0.025 | ≤ 0.025 | 0.39 (≈ 0.613 µM) | 0.05 (≈ 0.0785 µM) | 0.39 (≈ 0.613 µM) | 1.56 (≈ 2.45 µM) | 0.1 (≈ 0.157 µM) | 0.1 (≈ 0.157 µM) | ≤ 0.025 | Cn1nnnc1SCC1=C(C(=O)O)N2C(=O)[C@@H](NC(=O)/C(=N\OCc3cc(=O)c(O)cn3O)c3csc(N)n3)[C@H]2SC1 [Example 5, (6R, 7R)-7-[(Z)-2-(2-aminothiazol-4-yl)-2-(1,5-dihydroxy-4-pyridon-2-ylmethoxyimino)acetamido]-3(1-methyl-1H-tetrazol-5-ylthiomethyl)-3-cephem-4carboxylic acid] | – | 0.12 | – | 18.9 | – |
| 25 (≈ 37.5 µM) | ≤ 0.025 | 0.05 (≈ 0.075 µM) | 0.78 (≈ 1.17 µM) | 0.1 (≈ 0.15 µM) | 0.39 (≈ 0.585 µM) | 3.13 (≈ 4.69 µM) | 0.1 (≈ 0.15 µM) | 0.2 (≈ 0.3 µM) | 0.05 (≈ 0.075 µM) | Nc1nc(/C(=N/OCc2cc(=O)c(O)cn2O)C(=O)N[C@@H]2C(=O)N3C(C(=O)O)=C(CSc4nnnn4CCO)CS[C@H]23)cs1 [Example 6] | 42 | 0.13 | 1.4 | 4.6 | – |
| 6.25 (≈ 9.68 µM) | ≤ 0.025 | 0.05 (≈ 0.0774 µM) | 0.39 (≈ 0.604 µM) | 0.2 (≈ 0.31 µM) | 0.78 (≈ 1.21 µM) | 3.13 (≈ 4.85 µM) | 0.2 (≈ 0.31 µM) | 0.78 (≈ 1.21 µM) | 0.1 (≈ 0.155 µM) | C[n+]1ccc(SCC2=C(C(=O)[O-])N3C(=O)[C@@H](NC(=O)/C(=N\OCc4cc(=O)c(O)cn4O)c4csc(N)n4)[C@H]3SC2)cc1 [Example 18, (6R, 7R)-7-[(Z)-2-(2-aminothiazol-4-yl)-2-(1,5-dihydroxy-4-pyridon-2-ylmethoxyimino)acetamido]-3-(1-methylpyridinium-4-ylthiomethyl)-3-cephem-4-carboxylat] | 2.9 | 0.034 | 2 | 13 | – |
| 12.5 (≈ 18.2 µM) | 0.05 (≈ 0.0729 µM) | 0.1 (≈ 0.146 µM) | 0.2 (≈ 0.292 µM) | 0.39 (≈ 0.569 µM) | 1.56 (≈ 2.27 µM) | 6.25 (≈ 9.11 µM) | 0.78 (≈ 1.14 µM) | 1.56 (≈ 2.27 µM) | 0.2 (≈ 0.292 µM) | C[n+]1ccc(SCC2=C(C(=O)[O-])N3C(=O)[C@@H](NC(=O)/C(=N\OCc4cc(=O)c(O)cn4O)c4csc(N)n4)[C@H]3SC2)c2c1CCC2 [Example 19, (6R, 7R)-7-[(Z)-2-(2-aminothiazol-4-yl)-2-(1,5-dihydroxy-4-pyridon-2-ylmethoxyimino)acetamido]-3-(2,3-cyclopenteno-1-methylpyridinium-4-ylthiomethy)-3-cephem-4-carboxylate] | – | 0.077 | 7.8 | 9.6 | – |

| Structure (SMILES) | MIC [3] [µg/mL] | MIC (Escherichia coli ML 4707 [10]) [µg/mL] | MIC [1, 13] [µg/mL] | MIC [4, 15] [µg/mL] | MIC (Pseudomonas cepacia 23; [16]) [µg/mL] | MIC [5, 17] [µg/mL] | MIC [7, 19] [µg/mL] | MIC [11, 20] [µg/mL] | MIC [12, 21] [µg/mL] | MIC (Proteus vulgaris No. 33; [22]) [µg/mL] | ED50 [8] [mg/kg] | ED50 (Escherichia coli ML 4707 [9]) [mg/kg] | ED50 [2, 14] [mg/kg] | ED50 [6, 18] [mg/kg] | further results |
| --- | --- | --- | --- | --- | --- | --- | --- | --- | --- | --- | --- | --- | --- | --- | --- |
| CC(C)(O/N=C(\C(=O)N[C@@H]1C(=O)N2C(C(=O)[O-])=C(C[n+]3ccccc3)CS[C@H]12)c1csc(N)n1)C(=O)O [CAZ, ceftazidime, reference compound] | 12.5 (≈ 22.9 µM) | 0.2 (≈ 0.366 µM) | – | – | – | – | – | – | – | – | 17 | 0.73 | – | – | MIC ([1]; NO.42, read-out: minimum inhibitory concentration (M.I.C.)): 0.39 µg/mL (≈ 0.714 µM); ED50 [2]: 16 mg/kg; MIC ([4]; NEK39, read-out: minimum inhibitory concentration (M.I.C.)): 1.56 µg/mL (≈ 2.85 µM); MIC (Pseudomonas cepacia 23; Burkholderia cepacia, 23, read-out: minimum inhibitory concentration (M.I.C.)): 1.56 µg/mL (≈ 2.85 µM); MIC ([5]; NO.162, read-out: minimum inhibitory concentration (M.I.C.)): 1.56 µg/mL (≈ 2.85 µM); ED50 [6]: 31 mg/kg; MIC ([7]; NO.4, read-out: minimum inhibitory concentration (M.I.C.)): 6.25 µg/mL (≈ 11.4 µM); MIC (Proteus vulgaris No. 33; NO.33, read-out: minimum inhibitory concentration (M.I.C.)): 0.1 µg/mL (≈ 0.183 µM); MIC ([11]; Y1, read-out: minimum inhibitory concentration (M.I.C.)): 1.56 µg/mL (≈ 2.85 µM); MIC ([12]; K13, read-out: minimum inhibitory concentration (M.I.C.)): 3.13 µg/mL (≈ 5.73 µM) |
